T1: ENTH (epsin ENTH domain, C. thermophilum) (Thermochaetoides thermophila, UniProt G0SAK2)
T1 construct: ENTH domain; E. coli, N-terminal His6 tag cut with TEV
T1 sequence (G0SAK2 with tags, fused parts or gaps): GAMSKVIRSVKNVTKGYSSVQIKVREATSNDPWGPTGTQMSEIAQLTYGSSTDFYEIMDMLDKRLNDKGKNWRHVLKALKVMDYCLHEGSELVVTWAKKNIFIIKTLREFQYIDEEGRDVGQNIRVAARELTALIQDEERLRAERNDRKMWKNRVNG

T2: ANTHSla2 (S. cerevisiae) (Saccharomyces cerevisiae, UniProt P33338)
T2 construct: gene SLA2; ANTH domain (N-terminal); purified recombinant
T2 sequence (P33338 1-360 limits assumed): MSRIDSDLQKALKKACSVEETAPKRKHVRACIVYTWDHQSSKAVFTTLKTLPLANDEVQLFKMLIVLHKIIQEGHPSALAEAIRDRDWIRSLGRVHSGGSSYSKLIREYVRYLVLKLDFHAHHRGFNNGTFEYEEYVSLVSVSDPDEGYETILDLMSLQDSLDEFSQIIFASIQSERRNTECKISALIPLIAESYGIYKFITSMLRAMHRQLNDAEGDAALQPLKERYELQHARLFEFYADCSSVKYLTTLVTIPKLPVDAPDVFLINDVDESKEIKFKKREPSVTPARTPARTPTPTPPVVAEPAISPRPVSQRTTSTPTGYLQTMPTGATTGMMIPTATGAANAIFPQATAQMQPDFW

T3: ENTH2 (Ent2 ENTH domain, S. cerevisiae) (Saccharomyces cerevisiae, UniProt Q05785)
T3 construct: ENTH domain (N-terminal); purified recombinant; two domains sandwich one PIP2 in the crystal
T3 sequence (Q05785 1-156): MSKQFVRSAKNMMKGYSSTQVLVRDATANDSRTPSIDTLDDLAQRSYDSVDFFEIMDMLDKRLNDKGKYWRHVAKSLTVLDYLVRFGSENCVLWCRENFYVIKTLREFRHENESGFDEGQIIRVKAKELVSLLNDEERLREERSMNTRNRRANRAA

T4: CALM ANTH domain (Homo sapiens, UniProt Q13492)
T4 construct: gene PICALM; ANTH domain; E. coli, N-terminal His6 tag cut with TEV
T4 sequence (Q13492 1-289 limits assumed): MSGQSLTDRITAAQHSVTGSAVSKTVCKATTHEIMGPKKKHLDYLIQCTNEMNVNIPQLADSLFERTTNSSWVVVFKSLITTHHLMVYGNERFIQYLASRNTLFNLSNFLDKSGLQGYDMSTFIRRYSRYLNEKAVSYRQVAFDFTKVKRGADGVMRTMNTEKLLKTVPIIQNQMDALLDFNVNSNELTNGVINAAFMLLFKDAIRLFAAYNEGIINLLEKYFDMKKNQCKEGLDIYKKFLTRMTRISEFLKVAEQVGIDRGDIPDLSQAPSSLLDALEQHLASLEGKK

T5: human epsin-1 ENTH/Hip1R ANTH complex (Homo sapiens, UniProt O75146+Q9Y6I3)
T5 construct: gene EPN1; EPN1 aa 1-158 (extra Gly after Met) and Hip1R aa 1-300; His-GST tags cut with TEV; 6:0 to 8:8, mainly 6:6
T5 sequence (Q9Y6I3 1-158): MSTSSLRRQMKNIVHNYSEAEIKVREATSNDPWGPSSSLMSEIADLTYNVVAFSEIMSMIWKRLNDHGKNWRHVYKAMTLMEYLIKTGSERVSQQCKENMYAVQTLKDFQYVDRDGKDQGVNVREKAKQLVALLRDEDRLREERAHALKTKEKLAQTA
T5 sequence (O75146 1-300): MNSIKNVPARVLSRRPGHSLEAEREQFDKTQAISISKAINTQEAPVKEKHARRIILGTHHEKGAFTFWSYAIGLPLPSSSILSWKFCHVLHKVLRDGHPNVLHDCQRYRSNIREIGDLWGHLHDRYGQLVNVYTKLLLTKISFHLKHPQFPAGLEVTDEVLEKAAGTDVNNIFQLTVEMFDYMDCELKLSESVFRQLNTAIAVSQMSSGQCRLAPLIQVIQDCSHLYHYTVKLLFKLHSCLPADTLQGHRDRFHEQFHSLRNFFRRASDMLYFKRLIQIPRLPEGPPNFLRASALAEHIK

T6: ENTH1 (Ent1 ENTH domain, S. cerevisiae) (Saccharomyces cerevisiae, UniProt Q12518)
T6 construct: ENTH domain (N-terminal); purified recombinant
T6 sequence (Q12518 1-154): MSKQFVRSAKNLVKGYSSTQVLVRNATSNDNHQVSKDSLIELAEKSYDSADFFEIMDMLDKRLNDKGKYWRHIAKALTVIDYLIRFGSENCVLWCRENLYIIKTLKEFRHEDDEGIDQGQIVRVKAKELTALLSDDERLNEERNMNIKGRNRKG

T7: ENTH1 (Ent1 ENTH domain, S. cerevisiae) (Saccharomyces cerevisiae, UniProt Q12518, T104E)
T7 construct: ENTH domain (N-terminal); purified recombinant
T7 sequence (Q12518 1-154 T104E): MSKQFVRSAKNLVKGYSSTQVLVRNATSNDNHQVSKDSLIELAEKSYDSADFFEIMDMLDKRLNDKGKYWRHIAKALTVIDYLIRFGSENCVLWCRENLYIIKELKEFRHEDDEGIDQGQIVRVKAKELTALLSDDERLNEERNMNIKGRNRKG

T8: human epsin-1 ENTH (EPN1) (Homo sapiens, UniProt Q9Y6I3)
T8 construct: ENTH domain aa 1-158, extra Gly after start Met; E. coli His-GST fusion, tag cut with TEV; hexamer with PIP2
T8 sequence (Q9Y6I3 1-158): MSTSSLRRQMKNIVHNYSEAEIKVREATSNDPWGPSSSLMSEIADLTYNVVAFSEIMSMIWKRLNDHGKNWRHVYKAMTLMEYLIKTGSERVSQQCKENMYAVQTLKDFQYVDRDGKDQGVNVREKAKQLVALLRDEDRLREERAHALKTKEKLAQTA

T9: Epsin (Ent1) ENTH (Saccharomyces cerevisiae, UniProt Q12518)
T9 chain: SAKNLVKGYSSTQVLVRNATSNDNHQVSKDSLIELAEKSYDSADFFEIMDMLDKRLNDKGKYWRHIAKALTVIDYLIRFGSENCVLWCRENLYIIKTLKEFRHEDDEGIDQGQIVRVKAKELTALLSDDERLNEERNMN


Key:
[1] = target: T1, ENTH (epsin ENTH domain, C. thermophilum); assay: native MS titration, corrected for unspecific binding; details: ammonium acetate 300 mM, 1 mM DTT, pH 8.0; 10 uM protein, 60 uM PIP2; two sites, positive cooperativity
[2] = target: T2, ANTHSla2 (S. cerevisiae); assay: as above; details: ammonium acetate 300 mM, 1 mM DTT, pH 8.0; 10 uM protein, 60 uM PIP2; second site (canonical site removed)
[3] = target: T3, ENTH2 (Ent2 ENTH domain, S. cerevisiae); assay: as above; details: ammonium acetate 300 mM, 1 mM DTT, pH 8.0; 10 uM protein, 60 uM PIP2; two sites, positive cooperativity
[4] = target: T3, ENTH2 (Ent2 ENTH domain, S. cerevisiae); assay: X-ray crystal structure, […] A; format: binding; details: 0.1 M MES pH 6.5, 1.45 M ammonium sulfate; canonical phosphoinositide pocket, dimer interface
[5] = target: T4, CALM ANTH domain; assay: native MS titration, corrected for unspecific binding; details: ammonium acetate 300 mM, 1 mM DTT, pH 8.0; 10 uM protein, 60 uM PIP2; two sites, not cooperative
[6] = target: T5, human epsin-1 ENTH/Hip1R ANTH complex; assay: native MS of assembled complex; format: binding; details: ammonium acetate 300 mM, 1 mM DTT, pH 8.0; 10 uM ENTH, 10 uM ANTH, 60 uM PIP2; stoichiometry
[7] = target: T6, ENTH1 (Ent1 ENTH domain, S. cerevisiae); assay: native MS titration, corrected for unspecific binding; details: ammonium acetate 300 mM, 1 mM DTT, pH 8.0; 10 uM protein, 60 uM PIP2; two sites, positive cooperativity
[8] = target: T7, ENTH1 (Ent1 ENTH domain, S. cerevisiae); assay: native MS; format: binding; details: ammonium acetate, 1 mM DTT, pH 8.0; 10 uM protein, 60 uM PIP2
[9] = target: T10, ANTHSla2 (C. thermophilum), ANTHCh (Thermochaetoides thermophila, UniProt G0S106); assay: native MS titration, corrected for unspecific binding; details: ammonium acetate 300 mM, 1 mM DTT, pH 8.0; 10 uM protein, 60 uM PIP2; two sites
T10 construct: gene CTHT_0011900; ANTH domain; E. coli, N-terminal His6 tag cut with TEV

[10] = target: T8, human epsin-1 ENTH (EPN1); assay: native MS; SAXS; format: binding; details: hexamer formation with PIP2; SAXS in 20 mM Tris-HCl pH 8.0, 250 mM NaCl, 0.2 mM PIP2
[11] = target: T2, ANTHSla2 (S. cerevisiae); assay: native MS titration, corrected for unspecific binding; details: ammonium acetate 300 mM, 1 mM DTT, pH 8.0; 10 uM protein, 60 uM PIP2; two sites, positive cooperativity
[12] = target: T9, Epsin (Ent1) ENTH; assay: ITC

T10 sequence (G0S106 entry or part of it): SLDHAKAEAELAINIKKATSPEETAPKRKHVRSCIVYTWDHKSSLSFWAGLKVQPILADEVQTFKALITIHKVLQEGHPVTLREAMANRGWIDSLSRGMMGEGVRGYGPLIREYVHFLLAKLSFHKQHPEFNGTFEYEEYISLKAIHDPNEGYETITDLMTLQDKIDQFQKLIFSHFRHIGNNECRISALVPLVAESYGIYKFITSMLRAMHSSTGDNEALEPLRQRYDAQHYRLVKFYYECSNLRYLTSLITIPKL

Row | Molecule | KD,1 / KD,2 (macroscopic) [1] | dissociation constant [2] | KD,1 / KD,2 (macroscopic) [3] | X-ray crystal structure, 3.35 A [4] | KD,1 / KD,2 (macroscopic) [5] | native MS of assembled complex [6] | KD,1 / KD,2 (macroscopic) [7] | native MS [8] | KD,1 / KD,2 (macroscopic) [9] | native MS; SAXS [10] | KD,1 / KD,2 (macroscopic) [11] | Kd [12]
1 | CCCCCCCC(=O)OC[C@H](COP(=O)(O)O[C@@H]1[C@H](O)[C@H](O)[C@@H](OP(=O)(O)O)[C@H](OP(=O)(O)O)[C@H]1O)OC(=O)CCCCCCC [PIP2] | homologous epsin from C. thermophilum bind up to two PIP2 molecules per domain | 300 ± 70 µM | ENTH1 and ENTH2) from S. cerevisiae | The structure shows two ENTH2 domains sandwiched around one PIP2 molecule | macroscopic dissociation constants for CALM suggest higher affinity for the first PIP2-binding site | human epsin-1 ENTH domain with human Hip1R ANTH domain and PIP2 | ENTH1 and ENTH2) from S. cerevisiae | Thr104Glu mutant of ENTH1 from S. cerevisiae shows a reduction of PIP2 binding | several ANTH domains, showing two PIP2 binding sites for all wild-type proteins | A minimum of six PIP2 molecules is required for human ENTH hexamer formation | PIP2 dissociation constants are higher for Sla2 ANTH domains than for ENTH domains | 
2 | Sla2 ANTH (protein, PIP2) MSRIDSDLQKALKKACSVEETAPKRKHVRACIVYTWDHQSSKAVFTTLKTLPLANDEVQLFKMLIVLHKIIQEGHPSALAEAIRDRDWIRSLGRVHSGGSSYSKLIREYVRYLVLKLDFHAHHRGFNNGTFEYEEYVSLVSVSDPDEGYETILDLMSLQDSLDEFSQIIFASIQSERRNTECKISALIPLIAESYGIYKFITSMLRAMHRQLNDAEGDAALQPLKERYELQHARLFEFYADCSSVKYLTTLVTIPKLPVDAPDVFLINDVDESKEIKFKKREPSVT |  |  |  |  |  |  |  |  |  |  |  | 450 nM
